Laboratory results published in PubChem BioAssay (NCI).
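Test compounds were applied to cells in 96-well plates for 48 hours at 5 doses. Here, GI50 denotes the concentration required for 50% inhibition of growth. TGI marks complete inhibition of growth.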

What was measured:
Assay in all cases: DTP human tumour cell line panel, 48 h
A498 renal = test system: A498 renal
DU-145 prostate = test system: DU-145 prostate
NCI-H460 lung = test system: NCI-H460 lung
OVCAR-5 ovarian = test system: OVCAR-5 ovarian
OVCAR-8 ovarian = test system: OVCAR-8 ovarian
RPMI-8226 leukemia = test system: RPMI-8226 leukemia
SF-268 CNS = test system: SF-268 CNS
SK-MEL-2 melanoma = test system: SK-MEL-2 melanoma
SK-OV-3 ovarian = test system: SK-OV-3 ovarian
SNB-19 CNS = test system: SNB-19 CNS

| SMILES | GI50 (A498 renal) | TGI (A498 renal) | GI50 (DU-145 prostate) | TGI (DU-145 prostate) | GI50 (NCI-H460 lung) | TGI (NCI-H460 lung) | GI50 (OVCAR-5 ovarian) | TGI (OVCAR-5 ovarian) | GI50 (OVCAR-8 ovarian) | TGI (OVCAR-8 ovarian) | GI50 (RPMI-8226 leukemia) | TGI (RPMI-8226 leukemia) | GI50 (SF-268 CNS) | TGI (SF-268 CNS) | GI50 (SK-MEL-2 melanoma) | TGI (SK-MEL-2 melanoma) | GI50 (SK-OV-3 ovarian) | TGI (SK-OV-3 ovarian) | GI50 (SNB-19 CNS) | TGI (SNB-19 CNS) |
| --- | --- | --- | --- | --- | --- | --- | --- | --- | --- | --- | --- | --- | --- | --- | --- | --- | --- | --- | --- | --- |
| O=C(/C=C/c1ccc[nH]1)c1ccc(-n2ccc(C(F)(F)F)n2)cc1 | > 100 µM | > 100 µM | > 100 µM | > 100 µM | 84.2 µM | > 100 µM | > 100 µM | > 100 µM | > 100 µM | > 100 µM | 0.436 µM | 8.15 µM | 3.8 µM | > 100 µM | > 100 µM | > 100 µM | > 100 µM | > 100 µM | > 100 µM | > 100 µM |
| CN(C)CC[C@H](CSc1ccccc1)Nc1ccc(S(=O)(=O)NC(=O)c2ccc(N3CCN(Cc4ccccc4-c4ccc(Cl)cc4)CC3)cc2)cc1[N+](=O)[O-] | 0.0971 µM | 0.818 µM | 23 µM | > 100 µM | 3.52 µM | 23.9 µM | 5.07 µM | 41.1 µM | 6.12 µM | > 100 µM | 2.56 µM | > 100 µM | 5.84 µM | > 100 µM | 1.88 µM | 4.94 µM | 4.58 µM | 16.9 µM | 4.68 µM | > 100 µM |
| CCOc1ccc(/C=C2\N=C(c3ccc([N+](=O)[O-])cc3)OC2=O)cc1 | – | > 100 µM | – | > 100 µM | – | > 100 µM | – | > 100 µM | – | > 100 µM | – | > 100 µM | – | > 100 µM | – | > 100 µM | – | > 100 µM | – | > 100 µM |
| O=C(Cc1ccc(F)c(Cl)c1)Nc1cc(C2(C(F)(F)F)CC2)nn1CC1CCCCC1 | 1.52 µM | 4.89 µM | 5.39 µM | > 15 µM | 3.28 µM | 8.41 µM | 4.44 µM | > 15 µM | 4.96 µM | > 15 µM | 3.06 µM | 9.43 µM | 3.95 µM | > 15 µM | 3.99 µM | 13.3 µM | 3.24 µM | 11 µM | 4.78 µM | > 15 µM |
| CCOC(=O)Nc1cc2c(c(N)n1)N=C(c1ccccc1)CO2 | 0.147 µM | 6.92 µM | 0.194 µM | 1.44 µM | 0.0659 µM | 5.26 µM | 1.15 µM | 48.5 µM | 0.418 µM | > 32.9 µM | 0.126 µM | – | 0.325 µM | 15.8 µM | 41.7 µM | > 100 µM | 0.289 µM | 9.4 µM | 0.414 µM | 25 µM |
| O=c1oc2ccc(-c3ccc(F)cc3F)cc2c(=O)n1-c1cccc(C(F)(F)F)c1 | 0.21 µM | 0.888 µM | 2.79 µM | 16.4 µM | 0.999 µM | 10.3 µM | 4.11 µM | > 100 µM | 2.05 µM | > 100 µM | 0.395 µM | 3.26 µM | 1.23 µM | 8.21 µM | 0.55 µM | 2.85 µM | 1.02 µM | 4.54 µM | 1.83 µM | > 100 µM |
| COc1cc(Cl)cc(-c2nn(-c3cccc(NC(=O)c4ccc(N5CCOCC5)c(C(F)(F)F)c4)c3)cc2-c2ccncc2)c1 | 16.2 µM | > 100 µM | > 100 µM | > 100 µM | 4.8 µM | > 100 µM | 32.5 µM | > 100 µM | 6.33 µM | > 100 µM | 1.5 µM | > 100 µM | > 100 µM | > 100 µM | 21.1 µM | > 100 µM | > 100 µM | > 100 µM | > 100 µM | > 100 µM |
| CC1CC2CCCC(O)=C2C(=O)O1 (centres undefined) | – | > 100 µM | – | > 100 µM | – | > 100 µM | – | > 100 µM | – | > 100 µM | – | > 100 µM | – | > 100 µM | – | > 100 µM | – | > 100 µM | – | > 64.8 µM |
| Cc1nnc(Nc2ccc(NC(=O)Nc3ccc(Cl)cc3)cc2)c2ccccc12 | 3.21 µM | 10.5 µM | 4.77 µM | 19.5 µM | 3.46 µM | 11.7 µM | 2.1 µM | 4.99 µM | 3.35 µM | 9.32 µM | 2.6 µM | 6.48 µM | 2.57 µM | 7.17 µM | 2.22 µM | 4.59 µM | 2.61 µM | 6.59 µM | 2.77 µM | 8.72 µM |
| Cc1cc(N[C@@H]2CCC[C@H](Nc3ccnc4cc(Cl)ccc34)C2)nc(N2CCCCCC2)n1 | 1.74 µM | 3.2 µM | 2.99 µM | 10.6 µM | 1.58 µM | 3.2 µM | 2.06 µM | 6.26 µM | 2.51 µM | 6.1 µM | 1.64 µM | 4.71 µM | 1.54 µM | 3.39 µM | 2.07 µM | 4.52 µM | 1.86 µM | 3.73 µM | 2.56 µM | 8.08 µM |
